Here are results for 13 molecules from patent US10494375B2, “Antimicrobial compound” (priority 2016, dated 2019).

In one test the test system is E. faecium CCUG 37832. The test is described as follows: MIC determination by standardized microdilution test in Mueller-Hinton broth. Type of test: cell-based, Enterococcus faecium. As to the method: (§1) MBL-AB01 was tested against a panel of Gram-negative and Gram-positive pathogens. MICs for all Gram-positive and Gram-negative bacterial strains were determined by standardized microdilution tests using Mueller-Hinton broth (Acumedia). Bacterial inoculums containing 5×10^5 CFU/ml were incubated for 19 h at 35° C. in the presence of different antibiotic concentrations according to Clinical and Laboratory Standards Institute protocols. The bacterial strains were obtained from the culture collections ATCC (American Type Culture Collection), NCTC (National Collection of Type Cultures) and CCUG (culture collection university of Göteborg Sweden).

The subject of test [1] is S. aureus ATCC 43300 (MRSA). Described as above. Type of test: cell-based. How it is done:
as §1

The next test deals with S. aureus NCTC 6571. The test is described as above. Type of test: cell-based. How it is done:
as §1

Another test concerns S. aureus ATCC 29213. Described as above. It is filed as cell-based. As to the method: as §1
The next test deals with E. faecium CTC 492. The test is described as above. Type of test: cell-based, Enterococcus faecium. How it is done:
as §1

The next test relates to M. luteus, ATCC 9341. The test is described as above. Type of test: cell-based, Micrococcus luteus. How it is done: as §1
Test [2] deals with IMR90 Human Lung Fibroblast (ATCC CCL-186) cells. The test is described as follows: In vitro cytotoxicity, CellTiter-GLO 2.0 viability assay. It is filed as cell-based. The note with it: IMR-90, 24 hours exposure, viability relative to control wells.
Procedure: Xantolipin was obtained from Shaghai Jiao Tong University, China.
IMR90 cells were grown in DMEM—low glucose (Sigma) supplemented with 2 mM L-Glutamine, 1% MEM NEAA (Sigma), 1 mM Sodium Pyruvate, 10 mM HEPES and 100 U/mL Pen-Strep. The cells were subcultured twice or thrice a week at ratios between 1:2 and 1:8, depending on confluency. […] The microplates with cell suspension were shaked at 1600 rpm with 2.5 mm amplitude (Bioshake) for 20 seconds after seeding. […] The microplates with the IMR90 cells were incubated at 37° C. with 5% CO2 atmosphere. […] The serial dilutions with the compounds were further diluted in cell culture medium and transferred to the assay wells, giving a total DMSO concentration in the assay wells of 0.6%. After exposure, the assay plates with the IMR90 cells were further incubated at 37° C. with 5% CO2 atmosphere for 24 hours. The viability of the cells after incubation was measured using the Promega CellTiter-GLO 2.0 viability assay.
[3] abbreviates: footnote of Table 1: resistance profile of Enterococcus faecium CCUG37832, read-out: Mic.
Where [4] appears, read: Staphylococcus aureus, S. aureus ATCC 43300 (MRSA), 19 h at 35° C., read-out: MIC.
The mark [5] stands for this setting: Staphylococcus aureus, NCTC6571, S. aureus NCTC 6571, 19 h at 35° C., read-out: MIC.
Where [6] appears, read: Staphylococcus aureus, ATCC29213, S. aureus ATCC 29213, 19 h at 35° C., read-out: MIC.
Setting [7] is: Enterococcus faecium, CTC492, E. faecium CTC 492, 19 h at 35° C., read-out: MIC.
Where [8] appears, read: Enterococcus faecium, CCUG37832, E. faecium CCUG 37832 (multiresistant, vanA-positive clinical isolate), 19 h at 35° C., read-out: MIC.
The mark [9] stands for this setting: Micrococcus luteus, ATCC9341, M. luteus, ATCC 9341, 19 h at 35° C., read-out: MIC.

Converted amounts (≈) assume the structure as drawn. Read-outs that look alike come from different tables or passages of the source. Where a SMILES comes first, the peptide text is derived from it. Bridges are numbered along the chain shown (N, C = ends). [ ]: non-standard residue; d: D form. The star is where a group is joined. Ileψ(thiazoline)Cys = CC[C@H](C)[C@H](N)C1=N[C@H](C(=O)*)CS1; dOrn = NCCC[C@@H](N)C(=O)O

As to `CC1(C)S[C@@H]2[C@H](NC(=O)[C@H](N)c3ccccc3)C(=O)N2[C@H]1C(=O)O` [Ampicillin], the MIC with E. faecium CCUG 37832 (setting [3]) stood at 20 µg/mL (≈ 57.2 µM).
In the case of `CN[C@@H]1[C@@H](O[C@H]2O[C@H](CO)[C@@H](N)[C@H](O)[C@H]2O)OC2C[C@@H](N)[C@@H](O[C@H]3[C@H](O)[C@@H](O)[C@H](N)C[C@@H]3N)OC2[C@@H]1O` (stereo partly shown) [Apramycin], the MIC with E. faecium CCUG 37832 (setting [3]) is greater than 20 µg/mL.
With `CC[C@H](C)[C@H](N)C1=N[C@H](C(=O)N[C@@H](CC(C)C)C(=O)N[C@H](CCC(=O)O)C(=O)N[C@H](C(=O)N[C@H]2CCCCNC(=O)[C@H](CC(N)=O)NC(=O)[C@@H](CC(=O)O)NC(=O)[C@H](Cc3cnc[nH]3)NC(=O)[C@@H](Cc3ccccc3)NC(=O)[C@H]([C@@H](C)CC)NC(=O)[C@@H](CCCN)NC2=O)[C@@H](C)CC)CS1` [Bacitracin] ({Ileψ(thiazoline)Cys}-L[dE]IK[dOrn]I[dF]H[dD]N; lactam 4-C), the MIC with E. faecium CCUG 37832 (setting [3]) is greater than 8 µg/mL.
Consider `CN(C)[C@@H]1C(O)=C(C(N)=O)C(=O)[C@@]2(O)C(O)=C3C(=O)c4c(O)ccc(Cl)c4[C@@](C)(O)[C@H]3C[C@@H]12` [Chlortetracycline], for which, in the test on E. faecium CCUG 37832 (setting [3]), the MIC is greater than 10 µg/mL.
Still for that read-out and setting: for `N[C@@H]1CON=C1O` [Cycloserine] the value was greater than 8 µg/mL.
For `CCCCCCCCCC(=O)N[C@@H](Cc1c[nH]c2ccccc12)C(=O)N[C@H](CC(N)=O)C(=O)N[C@@H](CC(=O)O)C(=O)N[C@@H]1C(=O)NCC(=O)N[C@@H](CCCN)C(=O)N[C@@H](CC(=O)O)C(=O)N[C@H](C)C(=O)N[C@@H](CC(=O)O)C(=O)NCC(=O)N[C@H](CO)C(=O)N[C@@H]([C@H](C)CC(=O)O)C(=O)N[C@@H](CC(=O)c2ccccc2N)C(=O)O[C@@H]1C` [Daptomycin], the MIC in test [1] (setting [4]) is 4 µg/mL (≈ 2.47 µM); in the test with S. aureus NCTC 6571 (setting [5]), 4 µg/mL (≈ 2.47 µM); in the test with S. aureus ATCC 29213 (setting [6]), 4 µg/mL (≈ 2.47 µM); with E. faecium CTC 492 (setting [7]), greater than 16 µg/mL; with E. faecium CCUG 37832 (setting [8]) it was greater than 16 µg/mL; in the test with M. luteus, ATCC 9341 (setting [9]) it was 0.5 µg/mL (≈ 0.309 µM).
In the case of `CCC[C@@H]1C[C@@H](C(=O)N[C@@H]([C@H]2O[C@H](SC)[C@H](O)[C@@H](O)[C@H]2O)[C@@H](C)O)N(C)C1` [Lincomycin], in the test with E. faecium CCUG 37832 (setting [3]), the MIC is greater than 10 µg/mL.
For the molecule `CN[C@@H]1[C@H](O)[C@H](NC)[C@H]2O[C@@]3(O)C(=O)C[C@@H](C)O[C@H]3O[C@@H]2[C@H]1O` [Spectinomycin], the MIC with E. faecium CCUG 37832 (setting [3]) is greater than 8 µg/mL.
Turning to `[H]/N=C(/N)N[C@H]1[C@H](O)[C@@H](O)[C@H](O[C@@H]2O[C@@H](C)[C@](O)(C=O)[C@H]2O[C@@H]2O[C@@H](CO)[C@H](O)[C@@H](O)[C@@H]2NC)[C@@H](N/C(N)=N\[H])[C@@H]1O` [Streptomycin], the MIC was 16 µg/mL (≈ 27.5 µM) in test [1] (setting [4]); 16 µg/mL (≈ 27.5 µM) with S. aureus NCTC 6571 (setting [5]); 16 µg/mL (≈ 27.5 µM) in the test on S. aureus ATCC 29213 (setting [6]); greater than 16 µg/mL in the test on E. faecium CTC 492 (setting [7]); greater than 16 µg/mL in the test with E. faecium CCUG 37832 (setting [8]); 8 µg/mL (≈ 13.8 µM) in the test with M. luteus, ATCC 9341 (setting [9]).
Regarding `CN[C@H](CC(C)C)C(=O)N[C@H]1C(=O)N[C@@H](CC(N)=O)C(=O)N[C@H]2C(=O)N[C@H]3C(=O)N[C@H](C(=O)N[C@H](C(=O)O)c4cc(O)cc(O)c4-c4cc3ccc4O)[C@H](O)c3ccc(c(Cl)c3)Oc3cc2cc(c3O[C@@H]2O[C@H](CO)[C@@H](O)[C@H](O)[C@H]2O[C@H]2C[C@](C)(N)[C@H](O)[C@H](C)O2)Oc2ccc(cc2Cl)[C@H]1O` [Vancomycin], the MIC in test [1] (Staphylococcus aureus, 19 h) was 2 µg/mL (≈ 1.38 µM); with S. aureus NCTC 6571 (Staphylococcus aureus, NCTC6571, 19 h) it was 2 µg/mL (≈ 1.38 µM); in the test on S. aureus ATCC 29213 (Staphylococcus aureus, ATCC29213, 19 h), 2 µg/mL (≈ 1.38 µM); in the test with E. faecium CTC 492 (Enterococcus faecium, CTC492, 19 h), 1 µg/mL (≈ 0.69 µM); against E. faecium CCUG 37832 (Enterococcus faecium, CCUG37832) it was greater than 20 µg/mL; against E. faecium CCUG 37832 (Enterococcus faecium, CCUG37832, 19 h), greater than 16 µg/mL. In the test on M. luteus, ATCC 9341 (Micrococcus luteus, ATCC9341, 19 h), this molecule registered an MIC of 1 µg/mL (≈ 0.69 µM).
In the case of `COc1c(Cl)ccc2c(=O)c3c(O)c4c5c(c3oc12)OCO[C@@H]5C[C@@H]1C(=O)c2cc(C)[nH]c(=O)c2C(=O)[C@]41O` [Xantholipin], in test [2], a half-maximal response (EC50) required 1 µg/mL (≈ 1.81 µM).
`CC[C@H]1OC(=O)[C@H](C)[C@@H](O[C@H]2C[C@@](C)(OC)[C@@H](O)[C@H](C)O2)[C@H](C)[C@@H](O[C@@H]2O[C@H](C)C[C@H](N(C)C)[C@H]2O)[C@](C)(O)C[C@@H](C)C(=O)[C@H](C)[C@@H](O)[C@]1(C)O` [erythromycin]: the MIC with E. faecium CCUG 37832 (setting [3]) is greater than 20 µg/mL.
Take Gentamicin: the MIC in test [1] (S. aureus ATCC 43300 (MRSA), 19 h at 35° C.) is 16 µg/mL; with S. aureus NCTC 6571 (S. aureus NCTC 6571, 19 h at 35° C.), 4 µg/mL; in the test with S. aureus ATCC 29213 (S. aureus ATCC 29213, 19 h at 35° C.), 4 µg/mL; against E. faecium CTC 492 (E. faecium CTC 492, 19 h at 35° C.) it was 16 µg/mL; in the test on E. faecium CCUG 37832 (E. faecium CCUG 37832 (multiresistant, vanA-positive clinical isolate), 19 h at 35° C.), 16 µg/mL; with M. luteus, ATCC 9341 (M. luteus, ATCC 9341, 19 h at 35° C.), 4 µg/mL.
